Tests used:
[1] = test system: HBSO neurons; assay: Multi-electrode array (MEA) analysis of dissociated day 60 HBSO neurons; type: cell-based, human; conditions: 10 μM, applied immediately before recording
Procedure: The functionality of HBSO neurons, particularly their responses to hypercapnia, is further assessed using multi-electrode array (MEA) analyses. Briefly, Day 60 HBSOs arc dissociated with Papain Dissociation System (Worthington, LK003150) following the manufacturer's protocol. In brief, the HBSOs are digested with the papain solution in 37° C. incubator for 30 min with continuous shaking at 90 r.p.m. and then triturated with P1000 pipette. The triturated HBSOs are further digested in 37° C. incubator for an additional 10 min and then filtered through 40 μm cell strainer (Corning, 352340) to remove undigested cell debris. The dissociated cells are collected by centrifuging at 300×g for 5 min at room temperature. The cells are then resuspended with DNase/ovomucoid inhibitor solution to stop the digestion. […] MEA recordings are measured at 37° C. with 5-8% CO2 in a Maestro Edge MEA System (Axion Biosystems) to detect spontaneous firing of spikes. The MEA plate is pre-equilibrated in the MEA system for at least 5 min before measurement and each treatment is recorded for 5-10 min to calculate the mean spike firing rate. […] The MEA recordings are analyzed using the Neural Module of AxIS Navigator 1.5 software and the Neural Metric Tool software (Axion Biosystems). […]

[2] = test system: HBSOs; assay: HBSO differentiation with WNT antagonist added on days 3-6 (growth, RT-qPCR of patterning markers at day 20); type: cell-based, human
Procedure: To generate HSBOs, hPSCs are dissociated into single cell suspension by treating with 0.5 mM EDTA solution in DPBS and then Accutase as described above. 2.7×10^6 cells are seeded to a well of AggreWell800 24-well plate (STEMCELL Technologies, 34815) which contained 300 microwells per well (i.e. 9,000 cells per microwell). The cells are kept in mTeSR1 with 10 μM Y-27632 overnight in 37° C. incubator for the spheroid formation and they are marked as day 0 at this stage. At day 1, the spheroids from one well of Aggre Well800 are split into 3 wells of 6-well ultra-low-attachment plate containing Neural Induction Medium (DMEM/F12, 1% N2 supplement (v/v), 1% GlutaMAX supplement (v/v), 1% MEM-NEAA (v/v) and 1 μg ml^−1 Heparin) supplemented with BMP inhibitor LDN-193189 (1 μM) and TGF-β inhibitor SB431542 (10 μM). […]
Total RNA from HCOs and HBSOs are extracted by RNeasy Mini Kit (Qiagen) and the RNA concentrations are determined by Nanodrop 1000 Spectrophotometer (Thermo Fisher Scientific). […] Fluorescence is measured by ViiA 7 Real-Time PCR System (Thermo Fisher Scientific) at the end of each cycle. […]

With `NCCc1c[nH]c2ccc(O)cc12` [5-HT, serotonin] the “firing of HBSO neurons” value ([1]; FIG. 1J) was “capable of enhancing the firing”.

`O=C(Nc1cccc2cccnc12)c1ccc(N2C(=O)[C@@H]3[C@H](C2=O)[C@@H]2C=C[C@H]3C2)cc1` [IWR1-endo] was tested, and the “favoring the dB2 domain formation (PHOX2B expression)” value ([2]; 1 μM or 10 μM, day 20 RT-qPCR, FIG. 1D) was “does not provide additional benefits” and the “growth of the HBSOs” value ([2]; 10 μM) was “inhibited the growth”.

`CC1CCN(CC[C@H]2CCCN2S(=O)(=O)c2cccc(O)c2)CC1` [SB269970] was tested, and the “hypercapnia responses of HBSO neurons” value ([1]; FIG. 1K) was “counteraction of these responses”.

— patent US20240425812A1, “HYPOVENTILATION PHYSICAL MODELS AND APPLICATIONS THEREOF” (The University of Hong Kong, priority 2023, published 2024)
